The molecules below were run against T1, recombinant human GPR52 (Homo sapiens, UniProt Q9Y2T5) (assay: TR-FRET cAMP assay (LANCE Ultra cAMP Kit), GPR52 activity). Conditions: Flp-In-CHO cells stably expressing recombinant human GPR52; cAMP production, normalized to the positive control.
T1 construct: expressed in transfected cells
Format: cell-based
Description: TR-FRET cAMP assays were performed using commercially available assay kits (LANCE™ Ultra cAMP Kit). Controls and compounds were solubilized in DMSO using ½ log dilution to generate duplicate 10-point dose response curves in 384-well polypropylene compound plates. Sixty nanoliters of the diluted compounds were transferred into 384-well NBS assay plates and further diluted to 1× with the addition of 2000 cells per well. Flp-In™—CHO cells that stably express recombinant human GPR52.
Cells were harvested with cell stripper and resuspended in Stimulation Buffer (5 mM HEPES, 0.1% bovine serum albumin (BSA), 0.5 mM IBMX, pH 7.4). After thirty minutes incubation at room temperature, detection reagents were added to each well. Plates were then incubated for 30 minutes at room temperature. The LANCE™ Ultra cAMP assay uses time-resolved fluorescence resonance energy transfer (TR-FRET) to detect cAMVP production; this signal was quantified using a Pherastar multi-mode plate reader.
Dose-response curves were generated from the fluorescence counts normalized to the positive control. E EC50 values were obtained using a nonlinear regression curve-fitting program.

T1 sequence (Q9Y2T5 whole entry): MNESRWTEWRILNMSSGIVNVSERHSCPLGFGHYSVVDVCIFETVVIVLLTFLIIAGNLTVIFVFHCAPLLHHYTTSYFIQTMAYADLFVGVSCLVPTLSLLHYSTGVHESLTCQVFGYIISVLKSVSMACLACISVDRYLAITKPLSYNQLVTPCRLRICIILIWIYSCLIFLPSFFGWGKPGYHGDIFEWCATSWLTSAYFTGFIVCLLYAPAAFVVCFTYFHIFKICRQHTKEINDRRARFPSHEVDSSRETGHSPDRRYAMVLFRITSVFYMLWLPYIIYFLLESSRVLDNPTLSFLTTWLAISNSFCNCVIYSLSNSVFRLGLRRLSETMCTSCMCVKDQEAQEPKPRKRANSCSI

Compound	EC50
Cc1cc(-c2cc(COc3ccc(F)cc3Cl)ccn2)ccc1C(N)=O [Example 45, 4-[4-(2-chloro-4-fluorophenoxymethyl)pyridin-2-yl]-2-methylbenzamide]	101 to 1000 nM
Cc1ccccc1OCc1ccnc(-c2ccc(C(N)=O)c(C)c2)c1 [Example 46, 4-[4-(2-methylphenoxymethyl)pyridin-2-yl]-2-methylbenzamide]	101 to 1000 nM
COc1cc(Cl)ccc1OCc1ccnc(-c2ccc(C(N)=O)c(C)c2)c1 [Example 51, 4-[4-(4-chloro-2-methoxyphenoxymethyl)pyridin-2-yl]-2-methylbenzamide]	25 to 100 nM
Cc1cc(-c2cc(COc3cccc(F)c3F)ccn2)ccc1C(N)=O [Example 52, 4-[4-(2,3-difluorophenoxymethyl)pyridin-2-yl]-2-methylbenzamide]	25 to 100 nM
CSc1ccccc1OCc1ccnc(-c2ccc(C(N)=O)c(C)c2)c1 [Example 53, 4-{4-[2-(methylsulfanyl)phenoxymethyl]pyridin-2-yl}-2-methyl benzamide]	25 to 100 nM
COc1cc(OCc2ccnc(-c3ccc(C(N)=O)c(C)c3)c2)ccc1C(F)(F)F [Example 58, 4-{4-[3-methoxy-4-(trifluoromethyl)phenoxymethyl]pyridin-2-yl}-2-methylbenzamide]	25 to 100 nM
CCC(=O)c1ccc(OCc2ccnc(-c3ccc(C(N)=O)c(C)c3)c2)cc1 [Example 59, 4-[4-(4-propanoylphenoxymethyl)pyridin-2-yl]2-methylbenzamide]	101 to 1000 nM

The next lines start with the values.

EC50	Compound
< 25 nM	Cc1cc(-c2cc(COc3ccc(F)c(Cl)c3)ccn2)ccc1C(N)=O [Example 47, 4-[4-(3-chloro-4-fluorophenoxymethyl)pyridin-2-yl]-2-methylbenzamide]
< 25 nM	Cc1cc(-c2cc(COc3ccc(F)c(F)c3)ccn2)ccc1C(N)=O [Example 48, 4-[4-(3,4-difluorophenoxymethyl)pyridin-2-yl]-2-methylbenzamide]
25 to 100 nM	Cc1cc(-c2cc(COc3ccc(Cl)c(C#N)c3)ccn2)ccc1C(N)=O [Example 49, 4-[4-(4-chloro-3-cyanophenoxymethyl)pyridin-2-yl]-2-methylbenzamide]
25 to 100 nM	Cc1cc(-c2cc(COc3cccc(Cl)c3F)ccn2)ccc1C(N)=O [Example 50, 4-[4-(3-chloro-2-fluorophenoxymethyl)pyridin-2-yl]-2-methylbenzamide]
< 25 nM	Cc1cc(-c2cc(COc3cc(F)c(F)c(Cl)c3)ccn2)ccc1C(N)=O [Example 54, 4-[4-(3-chloro-4,5-difluorophenoxymethyl)pyridin-2-yl]-2-methylbenzamide]
< 25 nM	COc1cc(OCc2ccnc(-c3ccc(C(N)=O)c(C)c3)c2)ccc1C#N [Example 55, 4-[4-(4-cyano-3-methoxyphenoxymethyl)pyridin-2-yl]-2-methylbenzamide]
< 25 nM	Cc1cc(-c2cc(COc3cc(F)c(Cl)c(F)c3)ccn2)ccc1C(N)=O [Example 56, 4-[4-(4-chloro-3,5-difluorophenoxymethyl)pyridin-2-yl]-2-methylbenzamide]
< 25 nM	Cc1cc(-c2cc(COc3cc(F)c(F)c(F)c3)ccn2)ccc1C(N)=O [Example 57, 4-[4-(3,4,5-trifluorophenoxymethyl)pyridin-2-yl]-2-methyl benzamide]
< 25 nM	CC(=O)c1ccc(OCc2ccnc(-c3ccc(C(N)=O)c(C)c3)c2)cc1F [Example 60, 4-[4-(4-acetyl-3-fluorophenoxymethyl)pyridin-2-yl]-2-methylbenzamide]
< 25 nM	COc1cc(OCc2ccnc(-c3ccc(C(N)=O)c(C)c3)c2)ccc1F [Example 61, 4-[4-(4-fluoro-3-methoxyphenoxymethyl)pyridin-2-yl]-2-methylbenzamide]
< 25 nM	COc1ccc(OCc2ccnc(-c3ccc(C(N)=O)c(C)c3)c2)cc1F [Example 62, 4-[4-(3-fluoro-4-methoxyphenoxymethyl)pyridin-2-yl]-2-methylbenzamide]

— patent US12421193B2, “GPR52 modulators and methods of use” (Neurocrine Biosciences, Inc., priority 2020, dated 2025)
